Legend:
[1] = test system: SkBr3 cells; assay: Cell growth / drug combination analysis (alamar blue, Calcusyn); format: cell-based; details: for Calcusyn combination value at 50% effective dose: in combination with Lapatinib
[2] = test system: MCF7 cells; assay: Cell growth (alamar blue); format: cell-based
[3] = test system: HER2; assay: Western blot of SkBr3 cell lysates; format: cell-based; details: SkBr3 cells, 24 h
[4] = test system: cyclin D1; assay: Western blot of SkBr3 cell lysates; format: cell-based; details: SkBr3 cells, 24 h
[5] = test system: phospho-ERK; assay: Western blot of H358 cell lysates; format: cell-based; details: H358 cells, 72 h
[6] = test system: cyclin D1; assay: Western blot of H358 cell lysates; format: cell-based; details: H358 cells, 72 h
[7] = test system: cleaved PARP; assay: Western blot for cleaved PARP (apoptosis marker) in H358 cells; format: cell-based; details: 72 h, range of concentrations
[8] = test system: H292 xenograft; assay: H292 xenograft model; format: in vivo, nude mice; details: seliciclib 50 mg bid, [1] 40 mg bid days 1-5 and 11-15; erlotinib 100 mg qd po, 50 mg from day 11
[9] = test system: EGFR; details: H358 cells, 72 h, western blot
[10] = test system: phospho-Tyr1068 EGFR; details: H358 cells, 72 h, western blot
[11] = test system: H358 xenograft; details: day 49, erlotinib 100 mg/kg po daily, 28 days; for mean tumour volume: seliciclib 50 mg/kg ip twice daily 5 days on/2 off
[12] = test system: H358 cells; assay: Flow cytometry of DNA content (propidium iodide); details: 1×IC50, 72 h
Method: (B) The DNA content of the cells was analysed by flow cytometry after propidium iodide staining. Sub-G1 cells are those that contain less DNA than normal diploid cells. Results are representative of two independent experiments.
H358 or H1650 cells were seeded in 10 cm plates at approximately 5×10^5 cells/plate and left to settle overnight. […] After 72 h treatment, cells were harvested by trypsinisation, washed twice in PBS and then fixed overnight in 70% (v/v) ethanol at −20° C. Cells were washed twice in PBS containing 1% (w/v) BSA, then incubated with 50 μg/ml propidium iodide and 50 μg/ml ribonuclease A for 20 min at room temperature. Cells were analysed for DNA content by flow cytometry using the CellQuest programme on a Becton Dickinson LSR flow cytometer.

[13] = test system: H292 cells; assay: Drug combination analysis (Alamar blue, Calcusyn); details: 72 hours
[14] = test system: H358 cells; assay: Cell growth / drug combination analysis (alamar blue, Calcusyn); format: cell-based; details: Homo sapiens, NCI-H358
[15] = test system: A549 cells; assay: Cell growth (alamar blue); format: cell-based; details: Homo sapiens
[16] = test system: H460 cells; assay: Cell growth (alamar blue); format: cell-based; details: Homo sapiens, NCI-H460

Row | SMILES | effect on tumour growth [8] | Calcusyn combination value at 50% effective dose ([13]; in combination with AG1478) | Calcusyn combination value at 50% effective dose ([13]; in combination with Erlotinib) | Calcusyn combination value at 50% effective dose ([13]; in combination with Gefitinib) | Calcusyn combination value at 50% effective dose ([13]; in combination with Lapatinib) | further results
1 | CC[C@H](CO)Nc1nc(NCc2ccccc2)c2ncn(C(C)C)c2n1 [seliciclib, 2-(1-R-hydroxymethylpropylamino)-6-benzylamino-9-isopropylpurine] | minimal if any effect on tumour growth | 0.38 | 0.68 | 0.53 | 0.57 | IC70 (growth inhibition) [1]: 20.4 µM; Calcusyn combination value at 50% effective dose [1]: 0.72; IC70 (growth inhibition) [2]: 15.4 µM; HER2 levels [3]: decreased HER2 levels in a dose-dependent manner; cyclin D1 levels [4]: significantly decreased cyclin D1 levels in a dose-dependent manner; ERK phosphorylation [5]: no significant effect; cyclin D1 levels [6]: modest decrease; PARP cleavage [7]: dose-dependent increase in cleaved PARP; level of the EGFR [9]: decreased the level of the EGFR in a dose-dependent manner; EGFR phosphorylation [10]: limited effect; mean tumour volume [11]: 717 mm^3; G2/M phase cells [12]: characteristic increase in G2/M phase cells
2 | CC[C@H](Nc1nc(NCc2cccnc2)c2ncn(C(C)C)c2n1)[C@@H](C)O [[3], (2R3S)-3-{9-isopropyl-6-[(pyridine-3-ylmethyl)-amino]-9H-purin-2-ylamino}-pentan-2-ol] | – | 0.31 | 0.68 | 0.49 | 0.76 | –
3 | COc1cc2ncnc(Nc3cccc(Cl)c3)c2cc1OC [AG1478, 4-(3-chloroanilino)-6,7-dimethoxyquinazoline] | – | – | – | – | – | IC50 [14]: 4 µM; IC50 [15]: 6.6 µM; IC50 [16]: 10.4 µM; ERK phosphorylation [5]: stimulated ERK phosphorylation at low concentrations; cyclin D1 levels [6]: very little effect; PARP cleavage [7]: no increase in PARP cleavage; level of the EGFR [9]: decreased the level of the EGFR in a dose-dependent manner; EGFR phosphorylation [10]: dose-dependent decrease
4 | CC[C@H](Nc1nc(NCc2cccnc2)c2ncn(C(C)C)c2n1)C(C)(C)O [[2], (3S)-3-{9-isopropyl-6-[(pyridin-3-ylmethyl)-amino]-9H-purin-2-ylamino}-2-methyl-pentan-2-ol] | – | 0.26 | 0.62 | 0.54 | 0.79 | –
5 | C#Cc1cccc(Nc2ncnc3cc(OCCOC)c(OCCOC)cc23)c1 [erlotinib] | moderately effective | – | – | – | – | mean tumour volume [11]: 444 mm^3; tumour growth inhibition ([11]; seliciclib 50 mg/kg ip twice daily): 44%
6 | CC[C@H](Nc1nc(NCc2cnc(C)cc2C)c2ncn(C(C)C)c2n1)[C@@H](C)O [[4]] | – | 0.36 | 0.87 | 0.55 | 0.59 | Calcusyn combination value at 50% effective dose [1]: 0.67
7 | CC[C@@H](Nc1nc(NCc2cccnc2)c2ncn(C(C)C)c2n1)C(C)(C)O [[1], (3R)-3-{9-isopropyl-6-[(pyridin-3-ylmethyl)-amino]-9H-purin-2-ylamino}-2-methyl-pentan-2-ol] | minimal if any effect on tumour growth | 0.42 | 0.71 | 0.50 | 0.69 | –
